Test results published in US20250346585A1 (Alexion Pharmaceuticals, Inc., priority 2022, published 2025).

Target: Human complement C1s enzyme (Homo sapiens (Human), UniProt P09871)
Assay: Human C1s enzyme assay
Type: biochemical
Conditions: Human complement C1s enzyme 1.16 nM, substrate Z-L-Lys-SBzl 100 μM, assay of Example 3; read-out: IC50 (Stars)
How it was run: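 Purified serum-derived human C1s (1.16 nM final) preincubated 5 min at room temperature with compound in 50 mM Tris, 1 M NaCl, pH 7.5. Z-L-Lys-SBzl thioester substrate and DTNB added (100 μM each, final); A405 read every 30 s for 30 min. IC50 from nonlinear regression of reaction rates against compound concentration.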

Chain of Human complement C1s enzyme (P09871 438-688 limits assumed): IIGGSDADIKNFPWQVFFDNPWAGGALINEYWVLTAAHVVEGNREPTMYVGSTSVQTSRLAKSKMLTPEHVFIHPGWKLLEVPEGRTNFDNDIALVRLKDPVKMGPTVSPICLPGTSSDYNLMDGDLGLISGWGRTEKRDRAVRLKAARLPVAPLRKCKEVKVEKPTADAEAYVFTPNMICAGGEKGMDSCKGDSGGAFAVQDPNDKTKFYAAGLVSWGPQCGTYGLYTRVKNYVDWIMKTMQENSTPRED
Chain of Human complement C1s enzyme (P09871 16-437 partner limits assumed): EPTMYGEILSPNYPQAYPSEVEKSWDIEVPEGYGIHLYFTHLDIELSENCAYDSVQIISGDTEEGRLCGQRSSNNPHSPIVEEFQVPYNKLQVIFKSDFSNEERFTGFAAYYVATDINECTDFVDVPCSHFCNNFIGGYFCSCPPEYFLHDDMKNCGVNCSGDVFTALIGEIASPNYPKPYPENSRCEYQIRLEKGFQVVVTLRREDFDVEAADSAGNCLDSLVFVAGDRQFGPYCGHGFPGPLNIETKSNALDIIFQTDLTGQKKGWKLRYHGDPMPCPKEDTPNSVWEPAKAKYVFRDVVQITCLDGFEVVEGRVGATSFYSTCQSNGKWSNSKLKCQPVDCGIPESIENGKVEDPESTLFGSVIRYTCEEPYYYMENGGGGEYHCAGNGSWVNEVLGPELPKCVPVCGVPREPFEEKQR

| IC50 | Structure (SMILES) |
| --- | --- |
| < 100 nM | C[C@@H](NC(=O)[C@@H]1C[C@](F)(CF)CN1C(=O)CNC(=O)c1ccc2c(c1)-c1ccccc1S2(=O)=O)c1cc(C(=N)N)cs1 [Compound 336, (2S,4R)—N—((R)-1-(4-carbamimidoylthiophen-2-yl)ethyl)-1-((5,5-dioxidodibenzo[b,d]thiophene-2-carbonyl)glycyl)-4-fluoro-4-(fluoromethyl) pyrrolidine-2-carboxamide] |
| < 100 nM | C[C@@H](NC(=O)[C@@H]1C[C@@H](OC(F)F)CN1C(=O)CNC(=O)c1ccc2c(c1)-c1ccccc1S2(=O)=O)c1cc(C(=N)N)cs1 [Compound 337, (2S,4R)—N—((R)-1-(4-carbamimidoylthiophen-2-yl)ethyl)-4-(difluoromethoxy)-1-((5,5-dioxidodibenzo[b,d]thiophene-2-carbonyl)glycyl) pyrrolidine-2-carboxamide] |
| < 100 nM | C[C@@H](NC(=O)[C@@H]1C[C@@H](S(C)(=O)=O)CN1C(=O)CNC(=O)c1ccc2[nH]c3ccccc3c2c1)c1cc(C(=N)N)cs1 [Compound 340, N-(2-((2S,4R)-2-(((R)-1-(4-carbamimidoylthiophen-2-yl)ethyl)carbamoyl)-4-(methylsulfonyl)pyrrolidin-1-yl)-2-oxoethyl)-9H-carbazole-3-carboxamide] |
| < 100 nM | C[C@@H](NC(=O)[C@@H]1C[C@](F)(CF)CN1C(=O)CNC(=O)c1ccc2[nH]c3ccccc3c2c1)c1cc(C(=N)N)cs1 [Compound 341, N-(2-((2S,4R)-2-(((R)-1-(4-carbamimidoylthiophen-2-yl)ethyl)carbamoyl)-4-fluoro-4-(fluoromethyl)pyrrolidin-1-yl)-2-oxoethyl)-9H-carbazole-3-carboxamide] |
| < 100 nM | C[C@@H](NC(=O)[C@@H]1C[C@@H](S(C)(=O)=O)CN1C(=O)CNC(=O)c1ccc2c(c1)-c1ccccc1S2(=O)=O)c1cc(C(=N)N)cs1 [Compound 342, (2S,4R)—N—((R)-1-(4-carbamimidoylthiophen-2-yl)ethyl)-1-((5,5-dioxidodibenzo[b,d]thiophene-2-carbonyl)glycyl)-4-(methylsulfonyl) pyrrolidine-2-carboxamide] |
| < 100 nM | COC[C@@]1(F)C[C@@H](C(=O)N[C@H](C)c2cc(C(=N)N)cs2)N(C(=O)CNC(=O)c2ccc3c(c2)sc2ccccc23)C1 [Compound 343, (2S,4R)—N—((R)-1-(4-carbamimidoylthiophen-2-yl)ethyl)-1-((dibenzo[b,d]thiophene-3-carbonyl)glycyl)-4-fluoro-4-(methoxymethyl)pyrrolidine-2-carboxamide] |
| < 100 nM | COC[C@@]1(F)C[C@@H](C(=O)N[C@H](C)c2cc(C(=N)N)cs2)N(C(=O)CNC(=O)c2ccc3c(c2)C(C)(C)c2ccccc2-3)C1 [Compound 344, (2S,4R)—N—((R)-1-(4-carbamimidoylthiophen-2-yl)ethyl)-1-((9,9-dimethyl-9H-fluorene-2-carbonyl)glycyl)-4-fluoro-4-(methoxymethyl) pyrrolidine-2-carboxamide] |
| < 100 nM | C[C@@H](NC(=O)[C@@H]1C[C@@H](OC(F)F)CN1C(=O)CNC(=O)c1ccc2c(c1)C(C)(C)c1ccccc1-2)c1cc(C(=N)N)cs1 [Compound 348, (2S,4R)-N-((R)-1-(4-carbamimidoylthiophen-2-yl)ethyl)-4-(difluoromethoxy)-1-((9,9-dimethyl-9H-fluorene-2-carbonyl)glycyl) pyrrolidine-2-carboxamide] |
| < 100 nM | C[C@@H](NC(=O)[C@@H]1C[C@](F)(CF)CN1C(=O)CNC(=O)c1ccc2c(c1)sc1ccccc12)c1cc(C(=N)N)cs1 [Compound 349, (2S,4R)—N—((R)-1-(4-carbamimidoylthiophen-2-yl)ethyl)-1-((dibenzo[b,d]thiophene-3-carbonyl)glycyl)-4-fluoro-4-(fluoromethyl)pyrrolidine-2-carboxamide] |
| < 100 nM | COC[C@@]1(F)C[C@@H](C(=O)N[C@H](C)c2cc(C(=N)N)cs2)N(C(=O)CNC(=O)c2ccc3c(c2)S(=O)(=O)c2ccccc2-3)C1 [Compound 350, (2S,4R)—N—((R)-1-(4-carbamimidoylthiophen-2-yl)ethyl)-1-((5,5-dioxidodibenzo[b,d]thiophene-3-carbonyl)glycyl)-4-fluoro-4-(methoxymethyl) pyrrolidine-2-carboxamide] |
| < 100 nM | C[C@@H](NC(=O)[C@@H]1C[C@@H](S(=O)(=O)C2CC2)CN1C(=O)CNC(=O)c1ccc2c(c1)-c1ccccc1C2(F)F)c1cc(C(=N)N)cs1 [Compound 351, (2S,4R)—N—((R)-1-(4-carbamimidoylthiophen-2-yl)ethyl)-4-(cyclopropylsulfonyl)-1-((9,9-difluoro-9H-fluorene-3-carbonyl)glycyl)pyrrolidine-2-carboxamide] |
| < 100 nM | C[C@@H](NC(=O)[C@@H]1C[C@](F)(CF)CN1C(=O)CNC(=O)c1ccc2sc3ccccc3c2c1)c1cc(C(=N)N)cs1 [Compound 354, (2S,4R)—N—((R)-1-(4-carbamimidoylthiophen-2-yl)ethyl)-1-((dibenzo[b,d]thiophene-2-carbonyl)glycyl)-4-fluoro-4-(fluoromethyl)pyrrolidine-2-carboxamide] |
| < 100 nM | C[C@@H](NC(=O)[C@@H]1C[C@H](c2cccnc2)CN1C(=O)CNC(=O)c1ccc2c(c1)-c1ccccc1C2(F)F)c1cc(C(=N)N)cs1 [Compound 355, (2S,4R)—N—((R)-1-(4-carbamimidoylthiophen-2-yl)ethyl)-1-((9,9-difluoro-9H-fluorene-3-carbonyl)glycyl)-4-(pyridin-3-yl)pyrrolidine-2-carboxamide] |
| < 100 nM | CC1c2ccccc2-c2ccc(C(=O)NCC(=O)N3C[C@H](OC(F)F)C[C@H]3C(=O)N[C@H](C)c3cc(C(=N)N)cs3)cc21 (stereo partly drawn) [Compound 357, (2S,4R)—N—((R)-1-(4-carbamimidoylthiophen-2-yl)ethyl)-4-(difluoromethoxy)-1-((9-methyl-9H-fluorene-2-carbonyl)glycyl)pyrrolidine-2-carboxamide] |

The remaining lines, values behind:

| Structure (SMILES) | IC50 |
| --- | --- |
| Cc1ccc(-c2cccc(C(=O)NCC(=O)N3C[C@H](S(C)(=O)=O)C[C@H]3C(=O)N[C@H](C)c3cc(C(=N)N)cs3)c2)cc1 [Compound 335, (2S,4R)—N—((R)-1-(4-carbamimidoylthiophen-2-yl)ethyl)-1-((4′-methyl-[1,1′-biphenyl]-3-carbonyl)glycyl)-4-(methylsulfonyl)pyrrolidine-2-carboxamide] | < 100 nM |
| C[C@@H](NC(=O)[C@@H]1CC2(CN1C(=O)Cc1ccc(-c3ccccc3)cc1)OCCO2)c1cc(C(=N)N)cs1 [Compound 338, (S)-7-(2-([1,1′-biphenyl]-4-yl)acetyl)-N—((R)-1-(4-carbamimidoylthiophen-2-yl)ethyl)-1,4-dioxa-7-azaspiro[4.4]nonane-8-carboxamide] | < 100 nM |
| C[C@@H](NC(=O)[C@@H]1C[C@@H](S(C)(=O)=O)CN1C(=O)CNC(=O)c1ncc(-c2ccccc2)cc1F)c1cc(C(=N)N)cs1 [Compound 339, N-(2-((2S,4R)-2-(((R)-1-(4-carbamimidoylthiophen-2-yl)ethyl)carbamoyl)-4-(methylsulfonyl)pyrrolidin-1-yl)-2-oxoethyl)-3-fluoro-5-phenylpicolinamide] | < 100 nM |
| C[C@@H](NC(=O)[C@@H]1CC2(CN1C(=O)CCC(=O)c1ccc(-c3ccccc3)cc1)OCCO2)c1cc(C(=N)N)cs1 [Compound 345, (S)-7-(4-([1,1′-biphenyl]-4-yl)-4-oxobutanoyl)-N—((R)-1-(4-carbamimidoylthiophen-2-yl)ethyl)-1,4-dioxa-7-azaspiro[4.4]nonane-8-carboxamide] | < 100 nM |
| C[C@@H](NC(=O)[C@@H]1CC2(CN1C(=O)CN1Cc3ccc(-c4ccc(F)cc4F)cc3C1=O)OCCO2)c1cc(C(=N)N)cs1 [Compound 346, (S)—N—((R)-1-(4-carbamimidoylthiophen-2-yl)ethyl)-7-(2-(6-(2,4-difluorophenyl)-1-oxoisoindolin-2-yl)acetyl)-1,4-dioxa-7-azaspiro[4.4]nonane-8-carboxamide] | < 100 nM |
| C[C@@H](NC(=O)[C@@H]1CC2(CN1C(=O)CNC(=O)c1ncc(-c3ccccc3)cc1F)OCCO2)c1cc(C(=N)N)cs1 [Compound 347, (S)—N—((R)-1-(4-carbamimidoylthiophen-2-yl)ethyl)-7-((3-fluoro-5-phenylpicolinoyl)glycyl)-1,4-dioxa-7-azaspiro[4.4]nonane-8-carboxamide] | < 100 nM |
| C[C@@H](NC(=O)[C@@H]1C[C@@H](OC(F)F)CN1C(=O)CNC(=O)c1ccc2c(c1)sc1ccccc12)c1cc(C(=N)N)cs1 [Compound 352, (2S,4R)—N—((R)-1-(4-carbamimidoylthiophen-2-yl)ethyl)-1-((dibenzo[b,d]thiophene-3-carbonyl)glycyl)-4-(difluoromethoxy)pyrrolidine-2-carboxamide] | < 100 nM |
| C[C@@H](NC(=O)[C@@H]1C[C@@H](OC(F)F)CN1C(=O)CNC(=O)c1ccc2sc3ccccc3c2c1)c1cc(C(=N)N)cs1 [Compound 353, (2S,4R)—N—((R)-1-(4-carbamimidoylthiophen-2-yl)ethyl)-1-((dibenzo[b,d]thiophene-2-carbonyl)glycyl)-4-(difluoromethoxy)pyrrolidine-2-carboxamide] | < 100 nM |
| C[C@@H](NC(=O)[C@@H]1CC2(CN1C(=O)CNC(=O)c1ncc(-c3ccc(F)cc3F)cc1F)OCCO2)c1cc(C(=N)N)cs1 [Compound 356, (S)—N—((R)-1-(4-carbamimidoylthiophen-2-yl)ethyl)-7-((5-(2,4-difluorophenyl)-3-fluoropicolinoyl)glycyl)-1,4-dioxa-7-azaspiro[4.4]nonane-8-carboxamide] | < 100 nM |
| C[C@@H](NC(=O)[C@@H]1C[C@H](c2ccccn2)CN1C(=O)CNC(=O)c1ccc2c(c1)-c1ccccc1C2(F)F)c1cc(C(=N)N)cs1 [Compound 358, (2S,4S)—N—((R)-1-(4-carbamimidoylthiophen-2-yl)ethyl)-1-((9,9-difluoro-9H-fluorene-3-carbonyl)glycyl)-4-(pyridin-2-yl)pyrrolidine-2-carboxamide] | < 100 nM |
